Read-outs that look alike come from different tables or passages of the source.
What was measured:
[1] = target: Opioid Receptor Mu 1 (OPRM1) (Homo sapiens, UniProt P35372); assay: cell-based; conditions: 10 μM HU-MCA-13, read-out: Maximal Response
[2] = target: Cannabinoid Receptor 1 (CNR1) (Homo sapiens, UniProt P21554); assay: SAFETYscan CNR1 cAMP; assay type: cell-based; conditions: 10 μM HU-MCA-13; for Emax: read-out: Maximal Response
[3] = target: Voltage-gated L-type calcium channel (CAV1.2) (Homo sapiens, UniProt Q13936); assay: in vitro; design: dose or concentration left out as unconfirmed
[4] = target: Adrenergic Receptor β2 (ADRB2) (Homo sapiens, UniProt P07550); assay: SAFETYscan ADRB2 cAMP; assay type: cell-based; conditions: 10 μM HU-MCA-13, read-out: Maximal Response
Adrenergic Receptor β2 (ADRB2), sequence (P07550 whole entry): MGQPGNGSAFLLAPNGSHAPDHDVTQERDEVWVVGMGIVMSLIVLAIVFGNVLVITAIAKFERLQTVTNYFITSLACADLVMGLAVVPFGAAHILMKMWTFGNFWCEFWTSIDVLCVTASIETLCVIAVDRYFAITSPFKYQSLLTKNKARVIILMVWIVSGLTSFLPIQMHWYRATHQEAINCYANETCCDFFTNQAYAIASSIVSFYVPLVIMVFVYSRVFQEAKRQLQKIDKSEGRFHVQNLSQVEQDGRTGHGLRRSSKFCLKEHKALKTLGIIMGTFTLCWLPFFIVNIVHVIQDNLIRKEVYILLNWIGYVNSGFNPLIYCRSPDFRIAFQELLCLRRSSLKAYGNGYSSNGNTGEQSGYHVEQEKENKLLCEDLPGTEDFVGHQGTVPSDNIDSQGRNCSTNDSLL

[5] = target: 5-Hydroxytryptamine (Serotonin) Receptor 1B (HTR1B) (Homo sapiens, UniProt P28222); assay: SAFETYscan HTR1B cAMP; assay type: cell-based; conditions: 10 μM HU-MCA-13, read-out: Maximal Response
5-Hydroxytryptamine (Serotonin) Receptor 1B (HTR1B), sequence (P28222 whole entry): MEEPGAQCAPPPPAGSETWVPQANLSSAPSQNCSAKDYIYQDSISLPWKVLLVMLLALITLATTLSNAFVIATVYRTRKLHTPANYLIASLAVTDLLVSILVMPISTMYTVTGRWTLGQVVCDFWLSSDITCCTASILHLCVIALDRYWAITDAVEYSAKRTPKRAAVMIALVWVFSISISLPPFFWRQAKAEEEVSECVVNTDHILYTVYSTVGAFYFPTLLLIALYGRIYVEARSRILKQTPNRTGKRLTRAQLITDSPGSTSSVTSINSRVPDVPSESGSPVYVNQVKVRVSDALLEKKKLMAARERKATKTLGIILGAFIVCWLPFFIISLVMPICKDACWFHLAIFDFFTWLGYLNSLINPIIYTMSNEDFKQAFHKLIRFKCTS

Cyclooxygenase 1 (COX 1) = target: T1, Cyclooxygenase 1 (COX 1) (Homo sapiens, UniProt P23219); assay: SAFETYscan COX 1 Enzymatic; assay type: biochemical; conditions: Inhibitor mode; 10 μM HU-MCA-13; read-out: Maximal Response
T1 construct: DiscoverX (SAFETYscan contract panel)

[6] = target: 5-Hydroxytryptamine (Serotonin) Receptor 2A (HTR2A) (Homo sapiens, UniProt P28223); assay: SAFETYscan HTR2A Calcium Flux; assay type: cell-based; conditions: 10 μM HU-MCA-13, read-out: Maximal Response
5-Hydroxytryptamine (Serotonin) Receptor 2A (HTR2A), sequence (P28223 whole entry): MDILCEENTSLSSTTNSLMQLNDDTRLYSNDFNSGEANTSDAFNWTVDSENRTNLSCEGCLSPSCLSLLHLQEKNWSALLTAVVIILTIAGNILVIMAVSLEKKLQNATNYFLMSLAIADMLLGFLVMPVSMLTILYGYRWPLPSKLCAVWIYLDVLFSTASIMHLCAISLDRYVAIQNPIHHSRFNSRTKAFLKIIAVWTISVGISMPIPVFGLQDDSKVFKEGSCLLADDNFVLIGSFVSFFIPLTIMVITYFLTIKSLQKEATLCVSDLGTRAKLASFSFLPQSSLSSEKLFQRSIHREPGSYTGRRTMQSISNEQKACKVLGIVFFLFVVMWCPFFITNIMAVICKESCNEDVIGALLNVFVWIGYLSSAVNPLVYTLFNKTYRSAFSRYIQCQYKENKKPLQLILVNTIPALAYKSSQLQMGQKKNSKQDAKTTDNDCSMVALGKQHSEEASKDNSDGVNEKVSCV

[7] = target: Dopamine Receptor D2 (DRD2S) (Homo sapiens, UniProt P14416); assay: SAFETYscan DRD2S cAMP; assay type: cell-based; conditions: 10 μM HU-MCA-13
Dopamine Receptor D2 (DRD2S), sequence (P14416 1-414 isoform P14416-2): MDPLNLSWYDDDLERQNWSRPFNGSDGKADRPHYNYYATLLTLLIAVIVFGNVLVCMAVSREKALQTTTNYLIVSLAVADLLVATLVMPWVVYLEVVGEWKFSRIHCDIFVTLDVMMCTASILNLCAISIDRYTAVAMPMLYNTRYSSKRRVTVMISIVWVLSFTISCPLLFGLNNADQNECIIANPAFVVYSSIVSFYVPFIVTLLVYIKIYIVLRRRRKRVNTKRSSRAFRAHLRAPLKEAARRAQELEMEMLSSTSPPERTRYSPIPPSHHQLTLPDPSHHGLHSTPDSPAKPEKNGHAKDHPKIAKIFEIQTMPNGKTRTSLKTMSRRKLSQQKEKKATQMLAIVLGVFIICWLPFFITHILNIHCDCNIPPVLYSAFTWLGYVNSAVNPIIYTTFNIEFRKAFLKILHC

[8] = target: T2, Lymphocyte Cell-Specific Protein-Tyrosine Kinase (Src family) (LCK) (Homo sapiens, UniProt P06239); assay: SAFETYscan LCK kinase Binding; conditions: Inhibitor mode, 10 μM HU-MCA-13, read-out: Maximal Response
T2 construct: DiscoverX (KINOMEscan)

[9] = target: Dopamine Receptor D1 (DRD1) (Homo sapiens, UniProt P21728); assay: SAFETYscan DRD1 cAMP; assay type: cell-based; conditions: 10 μM HU-MCA-13
Dopamine Receptor D1 (DRD1), sequence (P21728 whole entry): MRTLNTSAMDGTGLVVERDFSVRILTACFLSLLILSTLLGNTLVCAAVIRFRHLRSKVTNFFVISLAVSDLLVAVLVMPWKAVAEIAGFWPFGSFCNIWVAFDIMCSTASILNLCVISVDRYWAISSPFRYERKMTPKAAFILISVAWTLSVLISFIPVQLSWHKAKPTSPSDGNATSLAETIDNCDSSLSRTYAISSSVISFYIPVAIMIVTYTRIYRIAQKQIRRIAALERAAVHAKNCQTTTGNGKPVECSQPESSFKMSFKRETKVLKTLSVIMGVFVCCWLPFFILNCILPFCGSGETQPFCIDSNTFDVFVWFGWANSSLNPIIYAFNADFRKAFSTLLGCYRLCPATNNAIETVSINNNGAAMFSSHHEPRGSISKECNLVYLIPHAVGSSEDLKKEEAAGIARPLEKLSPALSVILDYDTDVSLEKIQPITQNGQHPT

[10] = target: T3, 5-Hydroxytryptamine (Serotonin) Receptor 3A (HTR3A) (Homo sapiens, UniProt P46098); assay: SAFETYscan HTR3A Ion channel; assay type: cell-based; conditions: 10 μM HU-MCA-13, read-out: Maximal Response
T3 construct: DiscoverX (SAFETYscan contract panel)
T3 sequence (P46098 24-478): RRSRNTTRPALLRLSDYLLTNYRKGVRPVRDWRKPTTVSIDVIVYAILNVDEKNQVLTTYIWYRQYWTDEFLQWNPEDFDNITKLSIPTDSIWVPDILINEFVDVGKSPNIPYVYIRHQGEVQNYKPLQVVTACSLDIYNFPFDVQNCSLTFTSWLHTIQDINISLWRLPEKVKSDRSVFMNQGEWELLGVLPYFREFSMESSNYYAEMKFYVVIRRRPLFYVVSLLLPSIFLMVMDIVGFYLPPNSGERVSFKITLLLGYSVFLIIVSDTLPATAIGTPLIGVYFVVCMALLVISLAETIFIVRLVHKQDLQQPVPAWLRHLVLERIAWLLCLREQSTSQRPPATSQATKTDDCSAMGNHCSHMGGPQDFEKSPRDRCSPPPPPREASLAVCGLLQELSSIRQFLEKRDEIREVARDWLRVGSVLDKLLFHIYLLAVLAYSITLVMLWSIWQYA

[11] = target: Cholecystokinin Receptor A (CCKAR) (Homo sapiens, UniProt P32238); assay: SAFETYscan CCKAR Calcium Flux; assay type: cell-based; conditions: 10 μM HU-MCA-13, read-out: Maximal Response
[12] = target: 5-Hydroxytryptamine (Serotonin) Receptor 2B (HTR2B) (Homo sapiens, UniProt P41595); assay: SAFETYscan HTR2B Calcium Flux; assay type: cell-based; conditions: 10 μM HU-MCA-13, read-out: Maximal Response
5-Hydroxytryptamine (Serotonin) Receptor 2B (HTR2B), sequence (P41595 whole entry): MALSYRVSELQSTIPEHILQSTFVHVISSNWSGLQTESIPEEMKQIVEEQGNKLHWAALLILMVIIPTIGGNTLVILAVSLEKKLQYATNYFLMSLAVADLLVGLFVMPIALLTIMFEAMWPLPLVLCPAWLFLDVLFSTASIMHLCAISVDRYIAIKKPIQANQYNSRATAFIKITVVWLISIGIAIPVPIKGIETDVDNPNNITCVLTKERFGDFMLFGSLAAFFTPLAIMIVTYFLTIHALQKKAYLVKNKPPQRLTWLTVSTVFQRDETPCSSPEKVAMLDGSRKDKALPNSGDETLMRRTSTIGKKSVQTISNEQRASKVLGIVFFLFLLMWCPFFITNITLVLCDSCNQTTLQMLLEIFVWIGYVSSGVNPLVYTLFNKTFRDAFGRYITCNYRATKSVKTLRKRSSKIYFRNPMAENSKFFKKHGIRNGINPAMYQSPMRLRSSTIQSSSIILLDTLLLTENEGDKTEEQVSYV

[13] = test system: dorsal root ganglion (DRG) sensory neurons; assay: Neurite outgrowth in dorsal root ganglion (DRG) explants; assay type: cell-based, mice
Procedure: To perform these experiments, about 10 dorsal root ganglia (DRGs) were excised under sterile conditions and transferred to 0.25% Type IV collagenase (Sigma-Aldrich-Merck) in Dulbecco's Modified Eagle Medium (DMEM) at 37° C. for 45 min, followed by a 20-min incubation with 0.025% trypsin in DMEM, to digest the associated connective tissue surrounding the neurons. After plating the ganglia onto collagen (50 μg/ml)/laminin mixture (5 μg/ml)-coated tissue culture wells for 24 h, DRG neurons were cultured for additional 1-7 days in fresh Neurobasal A/B27 containing either 50 ng/ml NGF (positive control), blank medium (DMSO 1%) control and HU-MCA-13. The cultures were photographed; thereafter the ganglia were immune-stained for neuronal tubulin and again photographed using a fluorescent microscope. Image analysis was performed by a researcher blinded to the experimental conditions. Neurite outgrowth distance measured in micrometers, was quantified as for PC12 cultures.

[14] = target: Muscarinic acetylcholine Receptor M2 (CHRM2) (Homo sapiens, UniProt P08172); assay: SAFETYscan CHRM2 cAMP; assay type: cell-based; conditions: 10 μM HU-MCA-13, read-out: Maximal Response
[15] = target: Adrenergic Receptor α1A (ADRA1A) (Homo sapiens, UniProt P35348); assay: SAFETYscan ADRA1A Calcium Flux; assay type: cell-based; conditions: 10 μM HU-MCA-13, read-out: Maximal Response
Adrenergic Receptor α1A (ADRA1A), sequence (P35348 whole entry): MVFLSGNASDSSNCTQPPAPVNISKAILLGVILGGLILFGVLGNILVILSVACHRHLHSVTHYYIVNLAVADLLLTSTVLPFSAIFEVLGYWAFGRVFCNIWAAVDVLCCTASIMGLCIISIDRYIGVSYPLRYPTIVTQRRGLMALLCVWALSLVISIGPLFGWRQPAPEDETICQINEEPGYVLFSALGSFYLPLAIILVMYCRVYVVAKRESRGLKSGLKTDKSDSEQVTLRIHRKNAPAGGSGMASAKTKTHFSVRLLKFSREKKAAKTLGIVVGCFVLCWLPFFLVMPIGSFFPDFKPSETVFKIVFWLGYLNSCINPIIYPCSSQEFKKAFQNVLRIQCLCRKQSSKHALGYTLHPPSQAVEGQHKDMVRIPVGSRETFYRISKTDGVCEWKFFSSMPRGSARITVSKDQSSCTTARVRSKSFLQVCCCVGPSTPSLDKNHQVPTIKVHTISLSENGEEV

[16] = test system: Gamma-aminobutyric acid Receptor A (GABAA); assay type: cell-based; conditions: 10 μM HU-MCA-13
[17] = target: Histamine Receptor H1 (HRH1) (Homo sapiens, UniProt P35367); assay: SAFETYscan HRH1 Calcium Flux; assay type: cell-based; conditions: 10 μM HU-MCA-13, read-out: Maximal Response
Histamine Receptor H1 (HRH1), sequence (P35367 whole entry): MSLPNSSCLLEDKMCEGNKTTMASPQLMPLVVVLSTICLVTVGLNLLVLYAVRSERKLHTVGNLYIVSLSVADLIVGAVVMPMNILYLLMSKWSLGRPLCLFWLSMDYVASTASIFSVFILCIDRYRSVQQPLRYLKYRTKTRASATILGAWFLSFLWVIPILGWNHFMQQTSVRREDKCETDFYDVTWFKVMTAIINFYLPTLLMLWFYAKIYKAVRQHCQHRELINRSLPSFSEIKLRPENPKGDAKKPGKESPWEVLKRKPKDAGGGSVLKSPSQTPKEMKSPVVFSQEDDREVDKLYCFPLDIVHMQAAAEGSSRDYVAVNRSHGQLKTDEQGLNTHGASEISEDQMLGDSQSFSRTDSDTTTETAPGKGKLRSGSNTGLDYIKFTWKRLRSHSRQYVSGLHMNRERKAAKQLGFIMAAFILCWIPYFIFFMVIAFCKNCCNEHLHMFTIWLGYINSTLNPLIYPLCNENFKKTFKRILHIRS

[18] = target: T4, Adrenergic Receptor α2A (ADRA2A) (Homo sapiens, UniProt P08913); assay: SAFETYscan ADRA2A cAMP; assay type: cell-based; conditions: 10 μM HU-MCA-13
T4 sequence (P08913 1-465): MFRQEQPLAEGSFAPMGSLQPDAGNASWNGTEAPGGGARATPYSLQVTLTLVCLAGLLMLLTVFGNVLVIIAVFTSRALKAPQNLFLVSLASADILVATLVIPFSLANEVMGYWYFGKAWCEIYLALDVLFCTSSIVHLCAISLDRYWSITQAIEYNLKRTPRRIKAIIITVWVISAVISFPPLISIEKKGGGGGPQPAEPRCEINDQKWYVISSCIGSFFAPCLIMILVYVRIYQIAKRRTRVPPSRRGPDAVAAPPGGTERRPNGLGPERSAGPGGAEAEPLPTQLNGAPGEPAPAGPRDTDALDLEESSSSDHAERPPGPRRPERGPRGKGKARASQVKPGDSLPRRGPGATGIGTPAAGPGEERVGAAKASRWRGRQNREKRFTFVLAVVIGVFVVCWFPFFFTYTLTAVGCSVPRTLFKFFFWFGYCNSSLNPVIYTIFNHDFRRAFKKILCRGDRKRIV

PC12 cells = assay: Cytotoxicity (cell morphology, LDH release); assay type: cell-based; conditions: 10 μM
[19] = read-out: Maximal Response, Agonist mode
[20] = read-out: Maximal Response, Antagonist mode

Cannabinoid Receptor 1 (CNR1), sequence (P21554 whole entry): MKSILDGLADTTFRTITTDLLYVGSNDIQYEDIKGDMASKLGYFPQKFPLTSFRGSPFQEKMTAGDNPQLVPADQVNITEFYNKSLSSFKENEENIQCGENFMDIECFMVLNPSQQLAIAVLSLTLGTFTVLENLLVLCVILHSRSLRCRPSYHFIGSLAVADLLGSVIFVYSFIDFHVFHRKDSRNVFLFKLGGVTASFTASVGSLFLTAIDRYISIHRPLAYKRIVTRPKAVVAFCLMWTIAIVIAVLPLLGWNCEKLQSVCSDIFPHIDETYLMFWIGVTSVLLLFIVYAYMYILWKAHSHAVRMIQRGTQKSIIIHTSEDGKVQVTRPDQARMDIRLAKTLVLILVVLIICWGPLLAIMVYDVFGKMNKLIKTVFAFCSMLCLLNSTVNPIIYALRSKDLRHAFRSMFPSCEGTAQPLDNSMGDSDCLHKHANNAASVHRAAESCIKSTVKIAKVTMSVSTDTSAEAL
Opioid Receptor Mu 1 (OPRM1), sequence (P35372 whole entry): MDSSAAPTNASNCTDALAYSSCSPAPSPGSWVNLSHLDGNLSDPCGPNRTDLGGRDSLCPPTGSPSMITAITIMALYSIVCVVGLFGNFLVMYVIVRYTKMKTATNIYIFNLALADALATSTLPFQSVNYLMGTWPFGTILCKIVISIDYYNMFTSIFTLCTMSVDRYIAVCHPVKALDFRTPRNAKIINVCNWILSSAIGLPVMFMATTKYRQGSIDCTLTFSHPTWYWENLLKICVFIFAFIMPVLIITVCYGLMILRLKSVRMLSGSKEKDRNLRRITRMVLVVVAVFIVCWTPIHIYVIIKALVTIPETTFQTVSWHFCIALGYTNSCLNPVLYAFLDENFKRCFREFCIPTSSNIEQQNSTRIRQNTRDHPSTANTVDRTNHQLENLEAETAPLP

C=CCC1CCC[C@@H](CCC(=O)O)C1=C (some centres unmarked) [Compound 13]
Emax ([1]; OPRM1, Agonist mode): 9.31% | Emax ([1]; OPRM1, Antagonist mode): 0.38% | Maximal Response ([2]; Agonist mode): 50.22% | Emax ([2]; Agonist mode): 50.1% | Emax ([2]; Antagonist mode): 0.57% | Emax [3]: 3.82% | Emax ([4]; Agonist mode): 1.29% | Emax ([4]; Antagonist mode): 8.23% | Emax ([5]; Agonist mode): 10.5% | Emax ([5]; Antagonist mode): 0% | Emax (Cyclooxygenase 1 (COX 1)): 25% | Emax ([6]; Agonist mode): 1.13% | Emax ([6]; Antagonist mode): 0% | Emax [7, 19]: 0% | Emax [7, 20]: 0.51% | Emax [8]: 12.8% | Emax [9, 19]: 0% | Emax [9, 20]: 14.3% | Emax ([10]; Blocker mode): 0.19% | Emax ([10]; Opener mode): 0% | Emax ([11]; Agonist mode): 1.56% | Emax ([11]; Antagonist mode): 0% | Emax ([12]; Agonist mode): 0% | Emax ([12]; Antagonist mode): 0.13% | neurite outgrowth, neurotropic effect (in words) ([13]; HU-MCA-13 5 μM, 5 days): strong neurite outgrowth, neurotropic effect like NGF | maturity of neurites (cytoskeletal-tubulin protein staining) ([13]; HU-MCA-13 compared with NGF-treated ganglia): less mature than in NGF-treated ganglia | Emax ([14]; Agonist mode): 11.7% | Emax ([14]; Antagonist mode): 0% | Emax ([15]; Agonist mode): 1.12% | Emax ([15]; Antagonist mode): 3.06% | Maximal Response ([16]; Blocker mode): 7.74% | Maximal Response ([16]; Opener mode): 3.68% | Emax ([17]; Agonist mode): 0% | Emax ([17]; Antagonist mode): 1.05% | Maximal Response ([18]; Agonist mode): 24.55% | Emax ([18]; Antagonist mode, read-out: Maximal Response): 0% | Emax [18, 19]: 24.5% | cytotoxicity (in words) (PC12 cells): not toxic to neurons

From patent US20200239398A1, “METHYLENE-CYCLOALKYLACETATE DERIVATIVES AND THEIR USE IN TREATMENT OF NEUROTROPIC CONDITIONS” (Yissum Research Development Company of The Hebrew …, priority 2018, published 2020)
